Test results reported in patent publication US11028080B2, “Substituted pyrimidines as LRKK2 inhibitors” (Denali Therapeutics Inc., priority 2016, dated 2021).

Each compound was assayed against LRRK2 G2019S enzyme (Homo sapiens (Human), UniProt Q5S007, G2019S) (assay: LRRK2 G2019S biochemical TR-FRET assay (LRRKtide substrate)). Details: 5 nM LRRK2, 134 μM ATP, 60 minute reaction time, 23° C.
Procedure: Materials: • LRRK2 G2019S enzyme • Substrate (LRRKtide) • ATP • TR-FRET dilution buffer • pLRRKtide antibody • 384-well assay plate • DMSO • Enzyme reaction conditions • 50 mM Tris pH 7.5, 10 mM MgCl2, 1 mM EGTA, 0.01% Brij-35, 2 mM DTT • 5 nM LRRK2 • 134 μM ATP • 60 minute reaction time • 23° C. reaction temperature • 10 μL total reaction volume
Detection reaction conditions • 1×TR-FRET dilution buffer • 10 mM EDTA • 2 nM antibody • 23° C. reaction temperature • 10 μL total reaction volume
Compounds were prepared by initially diluting to 1 mM with DMSO. 35 μL of reference compound solution, 35 μL of test compound solution, and 35 μL HPE were successively added to the source plate (384-well assay plate, Labcyte). The plates were centrifuged at 2500 rpm for 1 minute and sealed in foil. POD was used to perform a 3.162 fold serial dilution and 100 nL of reference compound solution, test compound solution, HPE and ZPE were transferred to assay plates. The assay plate was centrifuged at 2500 rpm for 1 minute, and sealed with foil.
To perform the enzyme reaction, 5 μL of LRRKtide substrate and kinase mixture in assay buffer was added to all wells of the assay plate. The plate was centrifuged to concentrate the mixture at the bottom of the wells. The assay plate was incubated at 23° C. for 20 minutes. Following incubation, 5 μL of 2×ATP in assay buffer was added to each well, and plates were centrifuged to concentrate the mixture at the bottom of the wells. The plate was incubated at 23° C. for 60 minutes.
To perform the detection of the reaction, EDTA completely mixed in TR-FRET dilution buffer was added to antibody reagent. 10 μL of detection reagent was added to all wells of each well of the assay plate and the plate was centrifuged to concentrate the mixture at the bottom of the wells. The plate was then incubated at 23° C. for 60 minutes. Plates were read on Perkin Elmer Envision 2104 instrument in TR-FRET mode using a 340 nm excitation filter, 520 nm fluorescence emission filter, and 490 or 495 nm terbium emission filter.
In the table below, activity is provided as follows: In the table below, activity is provided as follows: +++=IC50 less than 30 nM; ++=IC50 between 30 nM and 60 nM; +=IC50 greater than 60 nM.

Sequence of LRRK2 G2019S enzyme (Q5S007 whole entry G2019S): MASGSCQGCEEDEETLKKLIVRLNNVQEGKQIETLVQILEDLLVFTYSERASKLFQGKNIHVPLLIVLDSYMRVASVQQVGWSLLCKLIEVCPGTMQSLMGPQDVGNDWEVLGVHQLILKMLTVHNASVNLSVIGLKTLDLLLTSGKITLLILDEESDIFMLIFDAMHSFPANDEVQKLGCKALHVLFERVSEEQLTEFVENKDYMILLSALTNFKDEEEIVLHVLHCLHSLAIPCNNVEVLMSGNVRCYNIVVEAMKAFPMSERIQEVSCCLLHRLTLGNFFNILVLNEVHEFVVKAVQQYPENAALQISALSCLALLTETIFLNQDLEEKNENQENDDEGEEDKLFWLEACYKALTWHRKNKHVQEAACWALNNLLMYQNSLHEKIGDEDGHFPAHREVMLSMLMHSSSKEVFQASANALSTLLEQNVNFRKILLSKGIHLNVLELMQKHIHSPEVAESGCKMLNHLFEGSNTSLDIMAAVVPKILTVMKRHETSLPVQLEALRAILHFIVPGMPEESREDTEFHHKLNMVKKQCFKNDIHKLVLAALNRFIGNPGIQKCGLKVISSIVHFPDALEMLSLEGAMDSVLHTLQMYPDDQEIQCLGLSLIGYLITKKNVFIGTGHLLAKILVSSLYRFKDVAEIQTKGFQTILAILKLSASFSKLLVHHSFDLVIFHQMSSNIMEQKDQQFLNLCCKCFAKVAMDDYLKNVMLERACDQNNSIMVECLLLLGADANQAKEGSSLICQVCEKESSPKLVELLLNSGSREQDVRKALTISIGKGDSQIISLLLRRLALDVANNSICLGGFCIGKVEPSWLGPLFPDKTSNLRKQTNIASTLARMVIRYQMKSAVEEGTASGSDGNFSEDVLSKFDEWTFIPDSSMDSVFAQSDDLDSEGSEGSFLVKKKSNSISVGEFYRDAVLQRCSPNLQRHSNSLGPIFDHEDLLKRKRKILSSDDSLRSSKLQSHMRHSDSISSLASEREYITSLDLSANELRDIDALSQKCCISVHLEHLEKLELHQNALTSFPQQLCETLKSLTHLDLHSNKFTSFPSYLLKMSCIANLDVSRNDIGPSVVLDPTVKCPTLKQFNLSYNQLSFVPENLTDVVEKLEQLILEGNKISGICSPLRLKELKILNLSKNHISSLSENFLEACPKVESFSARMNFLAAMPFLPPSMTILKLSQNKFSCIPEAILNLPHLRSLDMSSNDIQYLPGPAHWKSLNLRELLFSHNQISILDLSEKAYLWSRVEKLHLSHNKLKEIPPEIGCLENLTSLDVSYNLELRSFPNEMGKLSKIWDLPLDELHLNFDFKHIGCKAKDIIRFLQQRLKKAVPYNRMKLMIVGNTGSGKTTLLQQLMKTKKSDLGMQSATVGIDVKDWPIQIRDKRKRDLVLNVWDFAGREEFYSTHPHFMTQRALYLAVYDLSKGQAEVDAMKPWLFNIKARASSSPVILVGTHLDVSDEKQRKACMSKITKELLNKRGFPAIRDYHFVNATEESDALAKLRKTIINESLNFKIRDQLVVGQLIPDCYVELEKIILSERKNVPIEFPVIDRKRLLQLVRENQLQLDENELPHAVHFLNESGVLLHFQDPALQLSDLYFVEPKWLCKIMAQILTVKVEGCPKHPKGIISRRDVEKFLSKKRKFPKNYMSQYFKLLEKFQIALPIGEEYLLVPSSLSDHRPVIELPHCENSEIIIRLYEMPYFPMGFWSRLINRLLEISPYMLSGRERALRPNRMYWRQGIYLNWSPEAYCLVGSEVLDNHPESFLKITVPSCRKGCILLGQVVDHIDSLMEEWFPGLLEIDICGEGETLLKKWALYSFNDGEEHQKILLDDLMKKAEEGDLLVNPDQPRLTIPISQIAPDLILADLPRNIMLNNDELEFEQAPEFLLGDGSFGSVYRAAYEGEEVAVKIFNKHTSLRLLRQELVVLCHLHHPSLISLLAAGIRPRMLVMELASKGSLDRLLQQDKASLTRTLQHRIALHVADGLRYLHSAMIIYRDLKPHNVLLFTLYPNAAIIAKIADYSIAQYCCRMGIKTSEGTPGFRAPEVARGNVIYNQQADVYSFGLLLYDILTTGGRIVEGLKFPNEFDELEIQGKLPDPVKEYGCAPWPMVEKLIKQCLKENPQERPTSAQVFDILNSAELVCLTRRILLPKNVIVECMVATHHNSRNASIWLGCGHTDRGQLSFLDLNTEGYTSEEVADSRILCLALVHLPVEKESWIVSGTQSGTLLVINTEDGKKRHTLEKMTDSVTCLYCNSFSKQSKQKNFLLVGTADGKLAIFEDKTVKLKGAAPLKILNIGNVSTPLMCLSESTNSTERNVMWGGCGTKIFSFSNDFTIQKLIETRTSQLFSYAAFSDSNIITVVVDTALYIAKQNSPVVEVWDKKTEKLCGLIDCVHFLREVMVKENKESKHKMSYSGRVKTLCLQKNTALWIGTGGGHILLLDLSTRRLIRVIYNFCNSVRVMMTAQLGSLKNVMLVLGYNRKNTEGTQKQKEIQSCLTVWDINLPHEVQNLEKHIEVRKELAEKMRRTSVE

Question: With `[2H]C([2H])([2H])C1(c2nc(Cl)c(Nc3ncc(C(F)(F)F)c(NC)n3)s2)CCNC1=O` (single isomer, unassigned) [Compound 42] as the compound, how does the IC50 read?
Answer: Its IC50 is less than 30 nM.

Question: For `[2H]C([2H])([2H])C1(c2nc(Cl)c(Nc3ncc(C(F)(F)F)c(NC)n3)s2)CCNC1=O` (single isomer, unassigned) [Compound 43], which IC50 is on record?
Answer: Its IC50 is less than 30 nM.

Question: `[2H]C([2H])([2H])N1CCC(c2nc(Cl)c(Nc3ncc(C(F)(F)F)c(NC)n3)s2)(C([2H])([2H])[2H])C1=O` (single isomer, unassigned) [Compound 44] was tested. Which IC50 did it give?
Answer: The IC50 was less than 30 nM.

Question: `[2H]C([2H])([2H])N1CCC(c2nc(Cl)c(Nc3ncc(C(F)(F)F)c(NC)n3)s2)(C([2H])([2H])[2H])C1=O` (single isomer, unassigned) [Compound 45] was tested. Which IC50 did it give?
Answer: The IC50 was less than 30 nM.

Question: `[2H]C([2H])([2H])N1CCC(c2nc(Cl)c(Nc3ncc(C(F)(F)F)c(NCC)n3)s2)(C([2H])([2H])[2H])C1=O` (single isomer, unassigned) [Compound 46] was tested. Which IC50 did it give?
Answer: Its IC50 is less than 30 nM.

Question: How did the IC50 turn out when `[2H]C([2H])([2H])N1CCC(c2nc(Cl)c(Nc3ncc(C(F)(F)F)c(NCC)n3)s2)(C([2H])([2H])[2H])C1=O` (single isomer, unassigned) [Compound 47] was run?
Answer: Its IC50 is less than 30 nM.

Question: With `[2H]C([2H])([2H])C1(c2nc(Cl)c(Nc3ncc(Br)c(OC)n3)s2)CCNC1=O` (single isomer, unassigned) [Compound 48] as the compound, how does the IC50 read?
Answer: The IC50 was less than 30 nM.

Question: Which IC50 does the source give for `[2H]C([2H])([2H])C1(c2nc(Cl)c(Nc3ncc(Br)c(OC)n3)s2)CCNC1=O` (single isomer, unassigned) [Compound 49] here?
Answer: Its IC50 is less than 30 nM.

Question: With `[2H]C([2H])([2H])C1(c2nc(C3CC3)c(Nc3ncc(C(F)(F)F)c(NCC)n3)s2)CCNC1=O` (single isomer, unassigned) [Compound 51] as the compound, how does the IC50 read?
Answer: Its IC50 is less than 30 nM.

Question: For `[2H]C([2H])([2H])C1(c2nc(C3CC3)c(Nc3ncc(C(F)(F)F)c(NCC)n3)s2)CCNC1=O` (single isomer, unassigned) [Compound 52], which IC50 is on record?
Answer: The IC50 was less than 30 nM.

Question: How did the IC50 turn out when `[2H]C([2H])([2H])C1(c2nc(C3CC3)c(Nc3ncc(Br)c(OC)n3)s2)CCNC1=O` (single isomer, unassigned) [Compound 53] was run?
Answer: Its IC50 is less than 30 nM.

Question: With `[2H]C([2H])([2H])C1(c2nc(C3CC3)c(Nc3ncc(Br)c(OC)n3)s2)CCNC1=O` (single isomer, unassigned) [Compound 54] as the compound, how does the IC50 read?
Answer: Its IC50 is less than 30 nM.

Question: For `[2H]C([2H])([2H])C1(c2nc(C3CC3)c(Nc3ncc(C(F)(F)F)c(NC)n3)s2)CCNC1=O` (single isomer, unassigned) [Compound 59], which IC50 is on record?
Answer: Its IC50 is less than 30 nM.

Question: Which IC50 does the source give for `[2H]C([2H])([2H])C1(c2nc(C3CC3)c(Nc3ncc(C(F)(F)F)c(NC)n3)s2)CCNC1=O` (single isomer, unassigned) [Compound 60] here?
Answer: Its IC50 is less than 30 nM.

Question: `Cc1nc(C(C)(C)c2nc[nH]n2)sc1Nc1ncc(C(F)(F)F)c(C2CC2)n1` [Compound 1] was tested. Which IC50 did it give?
Answer: Its IC50 is less than 30 nM.

Question: With `CNc1nc(Nc2sc(C3(C#N)CC3)nc2C)ncc1C(F)(F)F` [Compound 2] as the compound, how does the IC50 read?
Answer: The IC50 was less than 30 nM.

Question: Which IC50 does the source give for `Cc1nc(C2(c3nc[nH]n3)CC2)sc1Nc1ncc(C(F)(F)F)c(C2CC2)n1` [Compound 3] here?
Answer: The IC50 was less than 30 nM.

Question: For `CCNc1nc(Nc2sc(C(=O)N3CCC(F)(F)C3)nc2C)ncc1C(F)(F)F` [Compound 10], which IC50 is on record?
Answer: The IC50 was less than 30 nM.

Question: `CNc1nc(Nc2cn(C)c(C#N)c2C)ncc1C(F)(F)F` [Compound 14, 1,3-dimethyl-4-((4-(methylamino)-5-(trifluoromethyl)pyrimidin-2-yl)amino)-1H-pyrrole-2-carbonitrile] was tested. Which IC50 did it give?
Answer: The IC50 was less than 30 nM.

Question: For `CCNc1nc(Nc2cn(Cc3ccn(C)n3)c(C#N)c2C)ncc1C(F)(F)F` [Compound 15, 4-((4-(ethylamino)-5-(trifluoromethyl)pyrimidin-2-yl)amino)-3-methyl-1-((1-methyl-1H-pyrazol-3-yl)methyl)-1H-pyrrole-2-carbonitrile], which IC50 is on record?
Answer: The IC50 was less than 30 nM.

Question: For `CCNc1nc(Nc2cn(S(C)(=O)=O)c(C#N)c2C)ncc1C(F)(F)F` [Compound 16, 4-((4-(ethylamino)-5-(trifluoromethyl)pyrimidin-2-yl)amino)-3-methyl-1-(methylsulfonyl)-1H-pyrrole-2-carbonitrile], which IC50 is on record?
Answer: The IC50 was less than 30 nM.

Question: `CNc1nc(Nc2sc(C(C)(C)C#N)nc2C)ncc1C(F)(F)F` [Compound 17, 2-methyl-2-(4-methyl-5-((4-(methylamino)-5-(trifluoromethyl)pyrimidin-2-yl)amino)thiazol-2-yl)propanenitrile] was tested. Which IC50 did it give?
Answer: Its IC50 is less than 30 nM.

Question: `CNc1nc(Nc2sc(C(C)(C)C(N)=O)nc2C)ncc1C(F)(F)F` [Compound 22] was tested. Which IC50 did it give?
Answer: Its IC50 is less than 30 nM.

Question: `[2H]C([2H])([2H])N1CCC(c2nc(C)c(Nc3ncc(C(F)(F)F)c(NC)n3)s2)(C([2H])([2H])[2H])C1=O` (stereo not shown) [Compound 23] was tested. Which IC50 did it give?
Answer: The IC50 was less than 30 nM.

Question: For `CCNc1nc(Nc2sc(C(=O)N3CCOCC3)nc2C)ncc1C(F)(F)F` [Compound 24], which IC50 is on record?
Answer: Its IC50 is less than 30 nM.

Question: For `CNc1nc(Nc2sc(C(C)(C)C(N)=O)nc2Cl)ncc1C(F)(F)F` [Compound 25], which IC50 is on record?
Answer: Its IC50 is less than 30 nM.

Question: `CCNc1nc(Nc2sc(C(C)(C)C(N)=O)nc2C)ncc1C(F)(F)F` [Compound 26] was tested. Which IC50 did it give?
Answer: The IC50 was less than 30 nM.

Question: For `CCNc1nc(Nc2sc(C#N)nc2C)ncc1C(F)(F)F` [Compound 27], which IC50 is on record?
Answer: The IC50 was less than 30 nM.

Question: How did the IC50 turn out when `CCNc1nc(Nc2sc(C(=O)NC)nc2C)ncc1C(F)(F)F` [Compound 28] was run?
Answer: The IC50 was less than 30 nM.

Question: How did the IC50 turn out when `Cc1nc(C(C)(C)C(N)=O)sc1Nc1ncc(C(F)(F)F)c(NC2CC2)n1` [Compound 29] was run?
Answer: The IC50 was less than 30 nM.

Question: For `Cc1nc(C(C)(C)C(N)=O)sc1Nc1ncc(C(F)(F)F)c(C2CC2)n1` [Compound 30], which IC50 is on record?
Answer: The IC50 was less than 30 nM.

Question: How did the IC50 turn out when `Cc1nc(C(C)(C)c2nnn(C)n2)sc1Nc1ncc(C(F)(F)F)c(C2CC2)n1` [Compound 31] was run?
Answer: Its IC50 is less than 30 nM.

Question: How did the IC50 turn out when `CCNc1nc(Nc2sc(C3(C#N)CC3)nc2C)ncc1C(F)(F)F` [Compound 32] was run?
Answer: The IC50 was less than 30 nM.

Question: `CCNc1nc(Nc2sc(C(=O)N3CC4CCC(C3)O4)nc2C)ncc1C(F)(F)F` [Compound 33] was tested. Which IC50 did it give?
Answer: The IC50 was less than 30 nM.

Question: `CC(C)(C(N)=O)c1nc(Cl)c(Nc2ncc(C(F)(F)F)c(NC3CC3)n2)s1` [Compound 34] was tested. Which IC50 did it give?
Answer: The IC50 was less than 30 nM.

Question: `CNc1nc(Nc2sc(C(C)(C)C#N)nc2Cl)ncc1C(F)(F)F` [Compound 36] was tested. Which IC50 did it give?
Answer: Its IC50 is less than 30 nM.

Question: For `CCNc1nc(Nc2sc(C(C)(C)C(N)=O)nc2Cl)ncc1C(F)(F)F` [Compound 37], which IC50 is on record?
Answer: Its IC50 is less than 30 nM.

Question: How did the IC50 turn out when `CCNc1nc(Nc2sc(C(C)(C)C(N)=O)nc2Cl)ncc1Br` [Compound 38] was run?
Answer: Its IC50 is less than 30 nM.

Question: Which IC50 does the source give for `COc1nc(Nc2sc(C(C)(C)C(N)=O)nc2Cl)ncc1Br` [Compound 39] here?
Answer: Its IC50 is less than 30 nM.

Question: How did the IC50 turn out when `CC(C)(C(N)=O)c1nc(Cl)c(Nc2ncc(C(F)(F)F)c(NCC(F)F)n2)s1` [Compound 40] was run?
Answer: Its IC50 is less than 30 nM.

Question: With `CC(C)(C(N)=O)c1nc(Cl)c(Nc2ncc(Br)c(NC3CC3)n2)s1` [Compound 41] as the compound, how does the IC50 read?
Answer: Its IC50 is less than 30 nM.

Question: With `CCNc1nc(Nc2sc(C(C)(C)C#N)nc2Cl)ncc1C(F)(F)F` [Compound 50] as the compound, how does the IC50 read?
Answer: Its IC50 is less than 30 nM.

Question: Which IC50 does the source give for `CNc1nc(Nc2sc(C(C)(C)C#N)nc2C2CC2)ncc1C(F)(F)F` [Compound 61] here?
Answer: Its IC50 is less than 30 nM.
